Type in all cases: cell-based
For one assay, the system named is RS4;11 cells. Description: Thiazolyl blue cell proliferation assay in RS4;11 cells. As to conditions: Homo sapiens, RS4;11 acute lymphoblastic leukemia cells, 48 hours, read-out: IC50 (nM) for inhibiting the proliferation of RS4;11 cells. The method, boiled down:
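RS4;11 cells, 3×10^4 cells/well in serum-containing RPMI-1640, treated 48 h with 7 concentrations (top 1000 nM or 100 nM, 10-fold serial dilutions). MTT added for 3 h at 37 °C, solubilised 4-6 h with SDS/isopropanol/HCl, absorbance read at 490 nm. IC50 from growth-inhibition curves; triplicates, at least three repeats.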

A further assay relates to MV4;11 cells. Description: Thiazolyl blue cell proliferation assay in MV4;11 cells. The conditions noted are these: Homo sapiens, MV4;11 myeloid monocytic leukemia cells, 48 hours, read-out: IC50 (nM) for inhibiting the proliferation of MV4;11 cells. In short, it runs like this:
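MV4;11 cells were seeded at 2×10^4 cells/well in serum-containing IMDM and treated with compound dilution series for 48 h. Viability was read by MTT at 490 nm after SDS/isopropanol/HCl solubilisation. IC50 values came from growth-inhibition curves, with 3 replicates and at least three repeats.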

A further assay relates to Molt-4 cells. Description: Thiazolyl blue cell proliferation assay in Molt-4 cells. The conditions noted are these: Homo sapiens, Molt-4 acute lymphocytic leukemia cells, 72 hours, read-out: IC50 (nM) for inhibiting the proliferation of Molt-4 cells. In short, it runs like this: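 BCL-XL-dependent Molt-4 cells at 2×10^4/well in serum-containing RPMI 1640 were exposed to compound concentration gradients for 72 h. Thiazolyl blue (MTT) was added for 3 h at 37° C, solubilised in SDS/isopropanol/HCl, and read at 490 nm. IC50 comes from growth-inhibition curves, triplicate, repeated ≥3 times.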

Assay [1] relates to Hedgehog (Hh) signaling pathway. Description: Dual-luciferase reporter assay of Hedgehog activity in Light II cells. The conditions noted are these: SAG stimulation, 36 h, dual-luciferase assay reporter kit, read-out: IC50 (nM) in Light II cells (inhibiting Hedgehog activity). As to the method:
Determination of the IC50 Values of Compounds Inhibiting Hedgehog Activity—Dual-Luciferase Reporter Assay:
Light II cells were NIH3T3 cell lines that stably express the Gli-luciferase and TK-renilla reporters. They were cultured with DMEM medium containing 10% (v/v) fetal bovine serum (FBS), 0.4 mg/ml G418, 0.15 mg/ml bleomycin (Zeocin), and penicillin/streptomycin at 37° C. in an incubator with 5% CO2. Light II cells in the logarithmic growth phase were seeded at a density of 2.5×10^4 cells/well in a 96-well plate. After 24h incubation, the cells were subjected to treatment with SAG with or without different concentrations of the compounds of the present disclosure for 36 h. After that, the Hedgehog activity was measured using the dual fluorescence reporter kit according to its instructions. The experiment had 3 replicates per group and was repeated at least three times.

Another assay addresses T1, BCL-XL protein (Homo sapiens, UniProt Q07817).
T1 construct: endogenous in cells; host or cells: Molt-4 (human acute lymphocytic leukemia cells)
Kind of assay: Western blot of BCL-XL protein in Molt-4 cells. As to conditions: 100 nM, 8 h. How it is done: The BCL-XL antibody used in the experiment was purchased from Abcam Company, and the Tubulin antibody was purchased from Proteintech Company.
Molt-4 cells in logarithmic growth phase seeded at a density of 3×10^6 cells/well in a 6-well plate were subjected to treatment with the compounds of the present disclosure, and DMSO was used as the vehicle control group. After […] of treatment, the cells were harvested and washed once in PBS. Cells were placed on ice and treated with IP protein lysis buffer containing PMSF protease inhibitors. After centrifugation at 4° C. (10 k rpm, 5 min), the supernatant was collected and mixed with 4×LDS protein loading buffer at a volume ratio of 3:1. The mixture of protein supernatant with loading buffer were further added with 5% β-mercaptoethanol. After incubation in a metal bath at 95° C. for 10 minutes, the protein samples was stored at −80° C. or cooled directly on ice for protein electrophoresis using 10% homemade polyacrylamide gel as separation gel. Electrophoresis tank and other related components were purchased from Bio-rad company. The electrophoresis conditions were voltage 80 V for 45 minutes, then switch to voltage 120V for further electrophoresis for 1 hour. Then protein in gel was transferred onto PVDF membrane at an isocurrent of 300 mA in an icy water bath for one hour. Afterwards, the membrane was blocked with 5% skim milk for 1 hour at room temperature. Subsequently the membrane was incubated with primary antibody at 4° C. overnight or at room temperature for 2 h, then washed with 1×TBST buffer (sodium chloride, 150 mM, Tris, 10 mM, Tween 20, 0.1%; PH 7.4) for three times, and then added with secondary antibody and incubated at room temperature for 45 min, washed with 1×TBST buffer (sodium chloride, 150 mM, Tris, 10 mM, Tween 20, 0.1%; PH 7.4) three times, and subjected to color development. The antibody dilution ratio was determined according to the antibody instructions.
Molt-4 cells were seeded into a 6-well plate at a density of 3×10^6 cells per well. The next day, the cells were treated with the compounds of the present disclosure at a concentration of 100 nM, and the control groups were treated with DMSO and DT2216, respectively. Protein were extracted after 8 hours treatment, and BCL-XL protein expression was assessed by the western blot.

Consider 4 compounds from patent US20250154146A1, “PROTEIN DEGRADERS DEVELOPED ON BASIS OF BCL-2 FAMILY PROTEIN LIGAND COMPOUNDS AND USE THEREOF” (ShanghaiTech University, priority 2022, published 2025).

Entries after “also recorded” stand apart in the source; their conditions may differ.

T1 sequence (Q07817 whole entry): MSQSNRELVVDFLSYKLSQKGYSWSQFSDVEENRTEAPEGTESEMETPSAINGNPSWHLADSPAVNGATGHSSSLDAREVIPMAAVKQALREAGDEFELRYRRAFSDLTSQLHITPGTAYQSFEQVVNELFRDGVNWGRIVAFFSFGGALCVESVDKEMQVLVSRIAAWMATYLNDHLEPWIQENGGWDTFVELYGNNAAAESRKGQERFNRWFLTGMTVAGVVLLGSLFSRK

Consider `CC1(C)CCC(CN2CCN(c3ccc(C(=O)NS(=O)(=O)c4ccc(NC[C@H]5CC[C@@H](N6CCN(Cc7cc(Br)c8c(c7)C(=O)N(C7CCC(=O)NC7=O)C8)CC6)CC5)c([N+](=O)[O-])c4)c(Oc4cnc5[nH]ccc5c4)c3)CC2)=C(c2ccc(Cl)cc2)C1` (relative stereo) [BCL-03149, 2-((1H-pyrrolo[2,3-b]pyridin-5-yl)oxy)-N-((4-((((cis)-4-(4-((7-bromo-2-(2,6-dioxopiperidin-3-yl)-3-oxoisoindolin-5-yl)methyl)piperazin-1-yl)cyclohexyl)methyl)amino)-3-nitrophenyl)sulfonyl)-4-(4-((4′-chloro-5,5-dimethyl-3,4,5,6-tetrahydro-[1,1′-biphenyl]-2-yl)methyl)piperazin-1-yl)benzamide], for which the IC50 is less than 20 nM in the assay with RS4;11 cells, less than 20 nM in the assay on MV4;11 cells, less than 10 nM in the assay on Molt-4 cells and less than 10 nM in assay [1]. The “BCL-XL protein expression / degradation (western blot)” value at BCL-XL protein is “significantly reduce the expression of BCL-XL protein; also recorded: significantly degraded BCL-XL protein”.
As for `CC1(C)CCC(CN2CCN(c3ccc(C(=O)NS(=O)(=O)c4ccc(NC[C@H]5CC[C@H](N6CCN(Cc7cc(Br)c8c(c7)C(=O)N(C7CCC(=O)NC7=O)C8)CC6)CC5)c([N+](=O)[O-])c4)c(Oc4cnc5[nH]ccc5c4)c3)CC2)=C(c2ccc(Cl)cc2)C1` (relative stereo) [BCL-03146, 2-((1H-pyrrolo[2,3-b]pyridin-5-yl)oxy)-N-((4-((((trans)-4-(4-((7-bromo-2-(2,6-dioxopiperidin-3-yl)-3-oxoisoindolin-5-yl)methyl)piperazin-1-yl)cyclohexyl)methyl)amino)-3-nitrophenyl)sulfonyl)-4-(4-((4′-chloro-5,5-dimethyl-3,4,5,6-tetrahydro-[1,1′-biphenyl]-2-yl)methyl)piperazin-1-yl)benzamide], the IC50 is less than 20 nM in the assay on RS4;11 cells, less than 20 nM in the assay on MV4;11 cells, less than 10 nM in the assay with Molt-4 cells and less than 10 nM in assay [1]. Also, the “BCL-XL protein expression / degradation (western blot)” value at BCL-XL protein is listed as “significantly reduce the expression of BCL-XL protein; also recorded: significantly degraded BCL-XL protein”.
`CC1(C)CCC(CN2CCN(c3ccc(C(=O)NS(=O)(=O)c4ccc(NC[C@H]5CC[C@@H](N6CCN(Cc7ccc8c(c7)CN(C7CCC(=O)NC7=O)C8=O)CC6)CC5)c([N+](=O)[O-])c4)c(Oc4cnc5[nH]ccc5c4)c3)CC2)=C(c2ccc(Cl)cc2)C1` (relative stereo) [BCL-03148, 2-((1H-pyrrolo[2,3-b]pyridin-5-yl)oxy)-4-(4-((4′-chloro-5,5-dimethyl-3,4,5,6-tetrahydro-[1,1′-biphenyl]-2-yl)methyl)piperazin-1-yl)-N-((4-((((cis)-4-(4-((2-(2,6-dioxopiperidin-3-yl)-1-oxoisoindolin-5-yl)methyl)piperazin-1-yl)cyclohexyl)methyl)amino)-3-nitrophenyl)sulfonyl)benzamide]: the IC50 in the assay with RS4;11 cells was less than 20 nM; with MV4;11 cells, less than 20 nM; with Molt-4 cells, less than 10 nM; in assay [1], less than 10 nM. For the same compound, the “BCL-XL protein expression / degradation (western blot)” value on BCL-XL protein is “significantly reduce the expression of BCL-XL protein; also recorded: significantly degraded BCL-XL protein”.
As for `CC1(C)CCC(CN2CCN(c3ccc(C(=O)NS(=O)(=O)c4ccc(NC[C@H]5CC[C@H](N6CCN(Cc7ccc8c(c7)CN(C7CCC(=O)NC7=O)C8=O)CC6)CC5)c([N+](=O)[O-])c4)c(Oc4cnc5[nH]ccc5c4)c3)CC2)=C(c2ccc(Cl)cc2)C1` (relative stereo) [BCL-03147, 2-((1H-pyrrolo[2,3-b]pyridin-5-yl)oxy)-4-(4-((4′-chloro-5,5-dimethyl-3,4,5,6-tetrahydro-[1,1′-biphenyl]-2-yl)methyl)piperazin-1-yl)-N-((4-((((trans)-4-(4-((2-(2,6-dioxopiperidin-3-yl)-1-oxoisoindolin-5-yl)methyl)piperazin-1-yl)cyclohexyl)methyl)amino)-3-nitrophenyl)sulfonyl)benzamide], the IC50 in the assay on RS4;11 cells is less than 20 nM; in the assay on MV4;11 cells, less than 20 nM; in the assay on Molt-4 cells, less than 10 nM; in assay [1] it was less than 10 nM. Besides, the “BCL-XL protein expression / degradation (western blot)” value on BCL-XL protein was “significantly reduce the expression of BCL-XL protein; also recorded: significantly degraded BCL-XL protein”.
